Like-named read-outs stand apart in the source and are kept apart here.
Legend:
[1] = target: T1, human serotonin transporters (Homo sapiens, UniProt P31645); experiment: Serotonin Transporter Binding Assay ([3H]-citalopram displacement, HEK-hSERT cell membranes); settings: 1 nM [3H]-citalopram, 1 hr at 25° C.
T1 construct: expressed in transfected cells; membrane homogenates
Description: HEK-293 cells that stably express human serotonin transporters (HEK-hSERT cells) were grown at 37° C. in 5% CO2 as a monolayer in medium consisting of EMEM supplemented with 10% fetal bovine serum and G418 sulfate (500 μg/mL). […] Cells were transferred from plates to polypropylene tubes (16×100 mm), centrifuged at 1,200×g for 5 min and were frozen at −80° C. until assay. Following centrifugation, pellets were resuspended by homogenization in buffer consisting of 50 mM Tris (pH 7.7 at 25° C.), 120 mM NaCl and 5 mM KCl and then centrifuged at 32,000×g for 10 min. Following centrifugation, supernatants were discarded and pellets were resuspended in buffer consisting of 50 mM Tris (pH 7.4 at 25° C.), 150 mM NaCl and 5 mM KCl. Membrane homogenates (200 μl/plate) were incubated with 1 nM [^3H]-citalopram (specific activity=85 Ci/mMol) and increasing concentrations of test compounds for 1 hr at 25° C. in a total volume of 250 μl. The assay buffer consisted of 50 mM Tris (pH 7.4 at 25° C.), 120 mM NaCl and 5 mM KCl (pH 7.4 with conc. HCl). Plates were incubated for 1 hr at 25° C., then filtered through 0.5% PEI treated Whatman GF/B filters using a Brandel cell harvester. Filters were washed three times with 3 mL of ice-cold tris wash buffer. Non-specific binding was defined with 10 μM fluoxetine. Amount of radioligand bound in the presence and absence of competitor was analyzed by plotting (−)log drug concentration versus the amount of radioligand specifically bound. The midpoint of the displacement curve (IC50, nM), signifies the potency.

[2] = target: T2, human norepinephrine transporters (Homo sapiens, UniProt P23975); experiment: Norepinephrine Transporter Binding Assay ([3H]-nisoxetine displacement, hNET cell membranes); settings: 2.7 nM [3H]-nisoxetine, 1 hr at 4° C., read-out: NE reuptake binding Ki
T2 construct: the text also calls them 'HEK-hNET cells'); membrane homogenates
T2 sequence (P23975 whole entry): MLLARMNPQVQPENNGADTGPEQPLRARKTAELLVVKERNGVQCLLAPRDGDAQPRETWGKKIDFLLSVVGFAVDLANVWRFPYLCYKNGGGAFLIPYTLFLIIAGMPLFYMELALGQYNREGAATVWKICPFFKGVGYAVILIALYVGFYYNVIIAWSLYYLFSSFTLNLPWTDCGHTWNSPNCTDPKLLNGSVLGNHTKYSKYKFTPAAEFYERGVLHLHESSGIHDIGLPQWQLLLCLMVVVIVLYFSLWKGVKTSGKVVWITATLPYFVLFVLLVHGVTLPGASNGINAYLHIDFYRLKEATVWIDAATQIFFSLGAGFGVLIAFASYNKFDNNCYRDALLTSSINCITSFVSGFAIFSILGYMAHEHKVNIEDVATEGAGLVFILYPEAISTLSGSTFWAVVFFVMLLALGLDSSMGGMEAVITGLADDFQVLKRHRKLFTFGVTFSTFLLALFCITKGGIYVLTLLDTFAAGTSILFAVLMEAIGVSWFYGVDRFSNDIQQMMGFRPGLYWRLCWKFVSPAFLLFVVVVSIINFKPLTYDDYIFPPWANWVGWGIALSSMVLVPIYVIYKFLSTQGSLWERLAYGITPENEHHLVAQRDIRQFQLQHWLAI
Description: MDCK cells that stably express human norepinephrine transporters (HEK-hNET cells) were supplied by Receptor Biology, Inc. Pellets were resuspended by homogenization in buffer consisting of 50 mM Tris (pH 7.4 at 25° C.), 120 mM NaCl and 5 mM KCl. Membrane homogenates (200 μl/well, 8 ug protein) were incubated with 2.7 nM [^3H]-nisoxetine (specific activity=80 Ci/mMol) and increasing concentrations of test compounds for 1 hr at 4° C. in a total volume of 250 μl. The assay buffer consisted of 50 mM Tris (pH 7.4 at 25° C.), 120 mM NaCl and 5 mM KCl (pH 7.4 with conc. HCl). Plates were incubated for 1 hr at 4° C., then filtered through 0.5% PEI treated Whatman GF/B filters using a Brandel cell harvester. Filters were washed three times with 3 mL of ice-cold tris wash buffer. Non-specific binding was defined with 10 μM desipramine. Amount of radioligand bound in the presence and absence of competitor was analyzed by plotting (−)log drug concentration versus the amount of radioligand specifically bound. The midpoint of the displacement curve (IC50, nM), signifies the potency. Ki values were calculated using the method of Cheng and Prusoff (1973).

[3] = read-out: 5-HT reuptake binding Ki

T1 sequence (P31645 whole entry): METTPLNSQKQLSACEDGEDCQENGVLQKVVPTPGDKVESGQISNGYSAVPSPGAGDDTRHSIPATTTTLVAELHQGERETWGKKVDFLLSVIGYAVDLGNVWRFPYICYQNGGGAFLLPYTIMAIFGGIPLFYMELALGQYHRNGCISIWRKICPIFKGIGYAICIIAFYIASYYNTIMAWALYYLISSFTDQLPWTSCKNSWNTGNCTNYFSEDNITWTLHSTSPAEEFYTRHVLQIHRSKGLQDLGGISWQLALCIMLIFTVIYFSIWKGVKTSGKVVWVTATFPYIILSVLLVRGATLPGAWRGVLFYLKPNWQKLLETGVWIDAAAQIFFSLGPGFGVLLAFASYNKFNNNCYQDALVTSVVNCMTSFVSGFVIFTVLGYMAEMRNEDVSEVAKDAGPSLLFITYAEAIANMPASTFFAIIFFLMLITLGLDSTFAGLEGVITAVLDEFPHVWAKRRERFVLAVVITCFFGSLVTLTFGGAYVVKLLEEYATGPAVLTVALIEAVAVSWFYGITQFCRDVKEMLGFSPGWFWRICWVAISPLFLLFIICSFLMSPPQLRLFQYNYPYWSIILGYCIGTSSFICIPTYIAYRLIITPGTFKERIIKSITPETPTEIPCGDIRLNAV

| Structure (SMILES) | Ki [1, 3] [nM] | Ki [2] [nM] | Ki ([1]; 5-HT reuptake binding Ki) [nM] |
| --- | --- | --- | --- |
| CN(C)C1CCCC1Cc1c[nH]c2ccc(C#N)cc12 (mixture of isomers) [Example 54, 3-(2-Dimethylamino-cyclopentylmethyl)-1H-indole-5-carbonitrile] | 1 to 10 | – | – |
| CN(C)C[C@H]1CCC[C@@H]1c1c[nH]c2ccc(C#N)cc12 (racemic) [Example 25, Trans-3-(2-dimethylaminomethyl-cyclopentyl)-1H-indole-5-carbonitrile] | – | > 1000 | < 1 |
| CCC([C@H]1CCC[C@@H]1c1c[nH]c2ccc(C#N)cc12)N(C)C (mixture of isomers) [Example 50, (+/−) trans-3-[2-(1-dimethylaminopropyl)cyclopentyl]-1H-indole-5-carbonitrile,diastereomer A] | 10 to 100 | – | – |
| CCC([C@H]1CCC[C@@H]1c1c[nH]c2ccc(C#N)cc12)N(C)C (mixture of isomers) [Example 51, (+/−) trans-3-[2-(1-dimethylaminopropyl)cyclopentyl]-1H-indole-5-carbonitrile,diastereomer B] | 100 to 500 | – | – |
| CNC[C@H]1CCC[C@@H]1c1c[nH]c2ccc(C#N)cc12 (relative stereo) [Example 26, Trans-3-(2-methylaminomethyl-cyclopentyl)-1H-indole-5-carbonitrile] | 1 to 10 | > 1000 | – |
| CCNC[C@H]1CCC[C@@H]1c1c[nH]c2ccc(C#N)cc12 (relative stereo) [Example 27, Trans-3-(2-ethylaminomethyl-cyclopentyl)-1H-indole-5-carbonitrile] | – | > 1000 | 10 to 100 |
| CCN(CC)C[C@H]1CCC[C@@H]1c1c[nH]c2ccc(C#N)cc12 (relative stereo) [Example 28, Trans-3-(2-diethylaminomethyl-cyclopentyl)-1H-indole-5-carbonitrile] | – | > 1000 | 100 to 500 |
| CCN(C)C[C@H]1CCC[C@@H]1c1c[nH]c2ccc(C#N)cc12 (relative stereo) [Example 29, Trans-3-{2-[(ethyl-methyl-amino)-methyl]-cyclopentyl}-1H-indole-5-carbonitrile] | – | > 1000 | 1 to 10 |
| N#Cc1ccc2[nH]cc([C@H]3CCC[C@@H]3CN3CCCC3)c2c1 (relative stereo) [Example 30, Trans-3-(pyrrolidin-1-ylmethyl-cyclopentyl)-1H-indole-5-carbonitrile] | – | > 1000 | 1 to 10 |
| CN(Cc1ccccc1)C[C@H]1CCC[C@@H]1c1c[nH]c2ccc(C#N)cc12 (relative stereo) [Example 31, Trans-3-{2-[(benzyl-methyl-amino)-methyl]-cyclopentyl}-1H-indole-5-carbonitrile] | 10 to 100 | > 1000 | – |
| CN(C)C[C@H]1CCC[C@@H]1c1cn(C)c2ccc(C#N)cc12 (relative stereo) [Example 32, Trans-3-(2-dimethylaminomethyl-cyclopentyl)-1-methyl-1H-indole-5-carbonitrile] | – | > 1000 | 1 to 10 |
| CCn1cc([C@H]2CCC[C@@H]2CN(C)C)c2cc(C#N)ccc21 (relative stereo) [Example 33, Trans-3-(2-dimethylaminomethyl-cyclopentyl)-1-ethyl-1H-indole-5-carbonitrile] | 1 to 10 | > 1000 | – |
| CN(C)C[C@H]1CCC[C@@H]1c1ccc2[nH]cc(C#N)c2c1 (relative stereo) [Example 34, Trans-5-(2-dimethylaminomethyl-cyclopentyl)-1H-indole-3-carbonitrile] | 1 to 10 | > 1000 | – |
| CNC[C@H]1CCC[C@@H]1c1ccc2[nH]cc(C#N)c2c1 (relative stereo) [Example 35, Trans-5-(2-methylaminomethyl-cyclopentyl)-1H-indole-3-carbonitrile] | 1 to 10 | > 1000 | – |
| N#Cc1c[nH]c2ccc([C@H]3CCC[C@@H]3CN3CCCC3)cc12 (relative stereo) [Example 36, Trans-5-(2-pyrrolidin-1-ylmethyl-cyclopentyl)-1H-indole-3-carbonitrile] | 100 to 500 | > 1000 | – |
| CCNC[C@H]1CCC[C@@H]1c1ccc2[nH]cc(C#N)c2c1 (relative stereo) [Example 37, Trans-5-(ethylaminomethyl-cyclopentyl)-1H-indole-3-carbonitrile] | 100 to 500 | > 1000 | – |
| CCN(C)C[C@H]1CCC[C@@H]1c1ccc2[nH]cc(C#N)c2c1 (relative stereo) [Example 38, Trans-5-{2-[(ethyl-methyl-amino)-methyl]-cyclopentyl}-1H-indole-3-carbonitrile] | 100 to 500 | > 1000 | – |
| CCN(CC)C[C@H]1CCC[C@@H]1c1ccc2[nH]cc(C#N)c2c1 (relative stereo) [Example 39, Trans-5-(diethylaminomethyl-cyclopentyl)-1H-indole-3-carbonitrile] | 100 to 500 | > 1000 | – |
| CN(Cc1ccccc1)C[C@H]1CCC[C@@H]1c1ccc2[nH]cc(C#N)c2c1 (relative stereo) [Example 40, Trans-5-{2-[(benzyl-methyl-amino)-methyl]-cyclopentyl}-1H-indole-3-carbonitrile] | 10 to 100 | > 1000 | – |
| CN(C)C[C@@H]1CCC[C@@H]1c1ccc2[nH]cc(C#N)c2c1 (relative stereo) [Example 43, Cis-5-(dimethylaminomethyl-cyclopentyl)-1H-indole-3-carbonitrile] | 1 to 10 | – | – |
| CC([C@H]1CCCC1c1c[nH]c2ccc(C#N)cc12)N(C)C (single isomer, unassigned) [Example 48] | 10 to 100 | – | – |
| CC([C@H]1CCCC1c1c[nH]c2ccc(C#N)cc12)N(C)C (single isomer, unassigned) [Example 49] | < 1 | – | – |
| CC([C@H]1CCCC1c1c[nH]c2ccc(C#N)cc12)N(C)C (single isomer, unassigned; diastereomer b) [Example 47, (+/−) trans-3-[2-(1-dimethylaminoethyl)cyclopentyl]-1H-indole-5-carbonitrile,diastereomer B] | 1 to 10 | – | – |
| CN(C)C[C@H]1CCC[C@@H]1c1c[nH]c2ccc(I)cc12 [Example 52, (1S,2S)-[2-(5-iodo-1H-indol-3-yl)-cyclopentylmethyl]-dimethylamine] | 10 to 100 | – | – |
| CNC1CCCC1Cc1c[nH]c2ccc(C#N)cc12 (stereo not shown) [Example 55, 3-(2-Methylamino-cyclopentylmethyl)-1H-indole-5-carbonitrile] | 1 to 10 | – | – |
| CCNC1CCCC1Cc1c[nH]c2ccc(C#N)cc12 (stereo not shown) [Example 56, 3-(2-Ethylamino-cyclopentylmethyl)-1H-indole-5-carbonitrile] | 1 to 10 | – | – |
| CCN(CC)C1CCCC1Cc1c[nH]c2ccc(C#N)cc12 (stereo not shown) [Example 57, 3-(2-Diethylamino-cyclopentylmethyl)-1H-indole-5-carbonitrile] | 10 to 100 | – | – |
| CCN(C)C1CCCC1Cc1c[nH]c2ccc(C#N)cc12 (stereo not shown) [Example 58, 3-[2-(Ethyl-methyl-amino)-cyclopentylmethyl]-1H-indole-5-carbonitrile] | 1 to 10 | – | – |
| N#Cc1ccc2[nH]cc(CC3CCCC3N3CCCC3)c2c1 (stereo not shown) [Example 59, 3-(2-Pyrrolidin-1-yl-cyclopentylmethyl)-1H-indole-5-carbonitrile] | 1 to 10 | – | – |
| CN(Cc1ccccc1)C1CCCC1Cc1c[nH]c2ccc(C#N)cc12 (stereo not shown) [Example 60, 3-[2-(Benzyl-methyl-amino)-cyclopentylmethyl]-1H-indole-5-carbonitrile] | 10 to 100 | – | – |
